Values quoted from earlier work, collected in article PMC9811530 (Experimental and Clinical Endocrinology & Diabetes, 2022).
Read-outs that look alike come from different tables or passages of the source.

How the values were obtained:
11beta-HSD1 in the liver = 11beta-HSD1 in the liver (Homo sapiens, UniProt P28845); settings: cited from earlier work
11beta-HSD1 in AT = settings: single dose, 24 h after dosing; cited from earlier work

Sequence of 11beta-HSD1 in the liver (P28845 whole entry): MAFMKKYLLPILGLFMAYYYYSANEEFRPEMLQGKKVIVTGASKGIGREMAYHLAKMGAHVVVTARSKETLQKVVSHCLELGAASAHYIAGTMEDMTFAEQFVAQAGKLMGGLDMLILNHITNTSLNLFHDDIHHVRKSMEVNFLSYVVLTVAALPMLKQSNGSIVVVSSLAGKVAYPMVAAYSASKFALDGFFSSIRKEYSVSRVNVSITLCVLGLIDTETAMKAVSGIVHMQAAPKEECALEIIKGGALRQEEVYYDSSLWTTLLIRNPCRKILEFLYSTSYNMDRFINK

N#Cc1ccc(-c2ccc(S(=O)(=O)Nc3cccc(N)n3)cc2)cc1 [PF-915275]
maximum decrease of the (aTHF+THF)/THE ratio (11beta-HSD1 in the liver; after 14 days of treatment): 26%

C[C@@H](c1ccc(-c2ccn(C)c(=O)c2)cc1)N1CC[C@](CC(C)(C)O)(c2ccccc2)OC1=O [BI 135585]
inhibition of 11beta-HSD1 in AT (11beta-HSD1 in AT): 90%

CCCSc1nc(N2CCC[C@@H](CC(=O)O)C2)ccc1C(=O)NC1CCCCC1 [AZD4017]
maximum decrease of the (aTHF+THF)/THE ratio (11beta-HSD1 in the liver; after 9 days): 92%

CC(C)[C@]1(C)SC(=N[C@H]2C[C@@H]3CC[C@H]2C3)NC1=O [AMG 221]
11beta-HSD1 inhibition in AT (11beta-HSD1 in AT): > 90%
